How the values were obtained:
patients with DVT [1] = assay: Putative indirect comparison of idrabiotaparinux with standard treatment (EQUINOX OR times van Gogh DVT OR); type: in vivo, human; conditions: 95% CI: 0.061-1.020; p value 0.053; calculated as 0.200 times 1.245
Experimental: For major bleedings, the putative odds ratio (OR) comparing idrabiotaparinux to the standard treatment (OR=0.249 [95% CI: 0.061-1.020]) yielded a p value of 0.053; this putative OR was calculated as OR of idrabiotaparinux versus idraparinux in EQUINOX (0.200) times OR of idraparinux versus standard treatment in van Gogh DVT (1.245).

activated factor X = assay: EQUINOX clinical trial: bioequipotency assessed by anti-Xa activity; type: in vivo, human; conditions: equimolar doses
Text: (§1) This trial was aimed at studying the bioequipotency of idrabiotaparinux and idraparinux, as assessed by anti-Xa activity at month 6, in patients with acute symptomatic DVT, as well as studying the ability to neutralize idrabiotaparinux with avidin, and also at documenting the safety and efficacy of idrabiotaparinux and idraparinux.

[2] = tested on: patients with acute symptomatic DVT; assay: EQUINOX clinical trial: bleeding (safety) and efficacy over 6 months of treatment; type: in vivo, human; conditions: for Kaplan-Meier cumulative incidence of first bleeding (any bleeding), comparison of the two groups: FIG. 1; for Major bleeding, number of patients [n] / Any bleeding (clinically relevant major or non-major), % of patients / Any bleeding (clinically relevant major or non-major), number of patients [n] / Major bleeding, % of patients (incidence): first study drug administration up to D182; for Any bleeding (clinically relevant major or non-major), % of patients: crude rate; for Any bleeding (clinically relevant major or non-major), number of patients [n]: once-weekly s.c., equimolar doses (idrabiotaparinux 3.0 mg, idraparinux 2.5 mg); for Major bleeding, % of patients (incidence): p=0.006 Fisher's exact test
Text: as §1
The study was an international, multi-center, double-blind, randomized, with two parallel groups phase III study, in patients treated for acute symptomatic DVT. In order to get 600 patients (300 patients in each treatment group) who completed the 6-month treatment with idrabiotaparinux or idraparinux, 700 patients with confirmed symptomatic DVT of the lower limbs were to be randomized to either idrabiotaparinux (n=350 patients) or idraparinux (n=350 patients). 300 completed patients per group, with a 6-month extent of exposure to the drug, were considered as an adequate sample size to assess clinical safety of idrabiotaparinux, i.e. to characterize the pattern of adverse events over time.
During the study period, patients were treated with equimolar doses of idrabiotaparinux (3.0 mg) or of idraparinux (2.5 mg). The drug was injected subcutaneously, once-weekly.
For safety, the main endpoints were clinically relevant bleeding (major or clinically relevant non-major), as classified by the Central Independent Adjudication Committee (hereafter “CIAC”), and death (cause of death validated by the CIAC).
The safety population consisted of all randomized patients who took at least one dose of study medication (all treated population). Patients were analyzed according to the treatment they actually received.
The main safety analysis period was the randomized treatment period, defined as the period from first study drug administration (taken as Day 1) up to Day 182 (hereafter “D182”).
The numbers and percentages of patients with clinically relevant bleeding within 6 months (from first study drug administration up to Day 182) were presented by treatment group. The rate of any clinically relevant bleeding was calculated by dividing the number of patients with this event by the number of treated patients (crude rate). Bleeding rate estimates and exact 95% confidence interval (hereafter “C1”) were presented by treatment group. Cumulative incidences of any clinically relevant bleeding during the on-treatment period were also described by treatment group using the Kaplan-Meier method. Time to first clinically relevant bleeding was censored at the minimum day between: Day 182; the day of last study drug administration+7 days; the day of death; and the day of last clinical event assessment giving any information on bleeding symptoms.
The numbers and percentages (crude rates) of patients with major bleedings within 6 months (from first study drug administration up to Day 182) were also presented by treatment group. The criteria used by the CIAC to classify major bleedings were summarized according to the worst severity. The order of severity was: fatal bleeding, including fatal intra-cranial hemorrhage (hereafter “ICH”), non-fatal bleeding within a critical organ, non-fatal bleeding with fall in hemoglobin or transfusion.

patients with DVT [3] = assay: VAN GOGH clinical trial (DVT): bleeding incidence, idraparinux versus standard therapy; type: in vivo, human
Text: According to the results published in N. Engl.

patients with DVT [4] = conditions: 6 months after start of treatment (Day 183), N. Engl. J. Med., 2007, 357, 1094-104; cited from earlier work
[5] = major bleedings up to D182 by adjudication criterion, all treated population

Compound	Major bleeding, number of patients [n] ([2]; all treated population)	Any bleeding (clinically relevant major or non-major), % of patients ([2]; all treated population) [%]	Any bleeding (clinically relevant major or non-major), number of patients [n] ([2]; all treated population)	Major bleeding, % of patients (incidence) ([2]; all treated population) [%]	Fatal bleeding: Gastrointestinal, number of patients [n] [2, 5]	Fatal bleeding: Intracranial, number of patients [n] [2, 5]	Fatal bleeding: Other, number of patients [n] [2, 5]	Non-fatal bleeding associated with a fall in hemoglobin >=2 g/dL and/or leading to a transfusion >=2 units of blood, % of patients [2, 5] [%]	Non-fatal bleeding associated with a fall in hemoglobin >=2 g/dL and/or leading to a transfusion >=2 units of blood, number of patients [n] [2, 5]	Non-fatal bleeding into a critical organ: Intracranial, number of patients [n] [2, 5]	Non-fatal bleeding into a critical organ: Other, number of patients [n] [2, 5]	Non-fatal bleeding into a critical organ: Pericardial, number of patients [n] [2, 5]	Non-fatal bleeding into a critical organ: Retroperitoneal, number of patients [n] [2, 5]	also measured
CO[C@H]1O[C@H](COS(=O)(=O)O)[C@@H](O[C@@H]2O[C@@H](C(=O)O)[C@@H](O[C@H]3O[C@H](COS(=O)(=O)O)[C@@H](O[C@@H]4O[C@H](C(=O)O)[C@@H](O[C@H]5O[C@H](COS(=O)(=O)O)[C@@H](OC)[C@H](OC)[C@H]5NC(=O)CCCCCNC(=O)CCCC[C@@H]5SC[C@@H]6NC(=O)N[C@@H]65)[C@H](OC)[C@H]4OC)[C@H](OS(=O)(=O)O)[C@H]3OS(=O)(=O)O)[C@H](OC)[C@H]2OC)[C@H](OS(=O)(=O)O)[C@H]1OS(=O)(=O)O [Idrabiotaparinux, idrabiotaparinux]	3	5.2	20	0.8	0	0	1	0.5	2	0	0	0	0	Putative odds ratio (OR) for major bleedings, idrabiotaparinux versus standard treatment (patients with DVT [1]): 0.249; anti-activated factor X pharmacological activity (anti-Xa activity) compared with idraparinux (activated factor X): same; Odds ratio for major bleedings, idrabiotaparinux versus idraparinux ([2]; EQUINOX): 0.200; Kaplan-Meier cumulative incidence of first bleeding (any bleeding), comparison of the two groups ([2]; on-treatment period, at month 3): comparable; Kaplan-Meier cumulative incidence of first major bleeding, comparison of the two groups ([2]; FIG. 2, on-treatment period, after month 2): marked difference in major bleeding incidences between the two treatment groups, in favour of the idrabiotaparinux group; Fatal bleeding: Other, % of patients [2, 5]: 0.3%; Fatal bleeding: Other, number of patients [n] ([2]; major bleedings up to D182 by adjudication criterion, all treated population, listed as idrabiotaparinux): One; Safety (observed bleedings) compared with idraparinux ([2]; patients with DVT treated for 6 months, equimolar doses): better safety with less observed bleedings
CO[C@H]1O[C@H](COS(=O)(=O)O)[C@@H](O[C@@H]2O[C@@H](C(=O)O)[C@@H](O[C@H]3O[C@H](COS(=O)(=O)O)[C@@H](O[C@@H]4O[C@H](C(=O)O)[C@@H](O[C@H]5O[C@H](COS(=O)(=O)O)[C@@H](OC)[C@H](OC)[C@H]5OC)[C@H](OC)[C@H]4OC)[C@H](OS(=O)(=O)O)[C@H]3OS(=O)(=O)O)[C@H](OC)[C@H]2OC)[C@H](OS(=O)(=O)O)[C@H]1OS(=O)(=O)O [Idraparinux, idraparinux]	14	7.3	27	3.8	0	3	0	1.9	7	2	0	0	2	Odds ratio for major bleedings, idraparinux versus standard treatment (patients with DVT [3]): 1.245; Kaplan-Meier cumulative incidence of first bleeding (any bleeding), comparison of the two groups ([2]; on-treatment period, at month 6): higher than in the idrabiotaparinux group; Fatal bleeding: Intracranial, % of patients [2, 5]: 0.8%; Non-fatal bleeding into a critical organ: Intracranial, % of patients [2, 5]: 0.5%; Non-fatal bleeding into a critical organ: Retroperitoneal, % of patients [2, 5]: 0.5%; Fatal bleeding: Intracranial, number of patients [n] ([2]; major bleedings up to D182 by adjudication criterion, all treated population, listed as idraparinux): three; Intracranial hemorrhages observed (fatal and non-fatal), number ([2]; up to D182, all treated population): five; Incidence of clinically relevant bleedings (any bleedings) (patients with DVT [4]): 8.3%; Rate of major bleedings (patients with DVT [4]): 1.9%

From patent publication US20110245200A1, “USE OF IDRABI[…] DECREASING THE INCIDENCE OF BLEEDINGS DURING AN ANTI[…]” (SANOFI-AVENTIS, priority 2008, published 2011)
